Source: patent US7129379B2, “3-amino-propoxphenyl derivatives (l)” (William John Louis, Austin and Repatriation Medical Centre, priority 1996, dated 2006)

How the values were obtained:
[1] = Duration of beta blockade after intravenous infusion in conscious rats (heart rate response to isoprenaline); assay type: in vivo, Sprague-Dawley rats; conditions: Sprague-Dawley, rat, plasma, iv; conscious male rats, after stopping i.v. infusion; time for inhibition of isoprenaline heart rate response to fall by 50%; read-out: Estimated Plasma Half Life
Description: (§1) Healthy male Sprague-Dawley rats were prepared under anaesthesia with indwelling catheters in the carotid artery and jugular vein and allowed to recover for at least 24 h. On the day of the experiment, the arterial catheter was attached to a flexible swivel and then to a pressure transducer for the continuous recording of heart rate and blood pressure. The venous catheters were attached to an infusion pump for drug administration or to a syringe for bolus injections of isoprenaline ([…]). The catheters were suspended out of the animal's way and the rat was allowed to move freely in a small covered enclosure isolated from outside disturbance. When the BP and HR were stable isoprenaline boluses were given at intervals of 10 minutes until the maximum responses in HR were reproducible (±10%). The doses were repeated for at least 40 minutes and the last 5 readings were considered to constitute the baseline response. The doses were continued at the same interval throughtout the test period of a further 150 minutes. Approximately 3.5 minutes before the next dose of isoprenaline the infusion of the test compound was started, to allow for dead volume in the infusion line, and continued for a further 33.5 minutes.
(§2) Rats were used for more than one experiment if their catheters remained patent with daily flushing with heparinised saline, but at least 24 hours separated each experiment.
(§3) Thus rats with the left carotid artery and left jugular vein cannulated can be studied in the conscious state. This allows continuous recording of heart rate and blood pressure before and after intravenous infusions of beta blocking drugs in selected doses. The duration of beta blockade following cessation of an intravenous infusion of a beta blocking drug can be followed by studying the time taken for the increase in heart rate produced by a standard dose of isoprenaline to return to control values following cessation of the beta blocking drug infusion. The maximum recorded inhibition of the heart rate response to isoprenaline during the infusion of the test drug is estimated, and the pharmacodynamic half-life is the time taken for this inhibition to fall by 50% following the cessation of infusion of the drug.
(§4) The half-life of action of the compounds in the systemic circulation as determined as described above in vivo in rats is indicated in Table 3.

[2] = molecular target: T1, β2 adrenoreceptor (guinea-pig trachea) (Cavia porcellus, UniProt Q8K4Z4); test: Isoprenaline relaxation of carbachol-contracted isolated guinea-pig trachea (pA2); conditions: isolated guinea-pig tracheal rings, carbachol 10^-6 M contraction, 37° C.; for Kb: read-out: Guinea Pig, pA2 Trachea, B2 (converted)
T1 construct: five rings 1–2 mm in width are cut from the trachea; from tissue; host or cells: isolated guinea-pig tracheal rings (organ bath)
T1 sequence (Q8K4Z4 whole entry): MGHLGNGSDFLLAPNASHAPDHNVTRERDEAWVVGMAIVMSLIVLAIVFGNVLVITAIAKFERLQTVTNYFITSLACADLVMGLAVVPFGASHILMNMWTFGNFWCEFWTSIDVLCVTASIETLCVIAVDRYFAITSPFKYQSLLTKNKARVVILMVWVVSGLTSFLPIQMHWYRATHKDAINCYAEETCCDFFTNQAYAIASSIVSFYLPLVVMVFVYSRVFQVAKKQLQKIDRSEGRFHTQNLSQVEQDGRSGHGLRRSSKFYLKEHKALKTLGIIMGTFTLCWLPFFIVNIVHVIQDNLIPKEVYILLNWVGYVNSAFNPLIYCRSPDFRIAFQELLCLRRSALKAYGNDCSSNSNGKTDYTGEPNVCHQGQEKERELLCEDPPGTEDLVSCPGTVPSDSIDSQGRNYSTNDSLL
From the text: (§5) Tissue preparation: The animals are killed by a rapid blow to the head followed by cervical dislocation. The chest is opened and the heart and trachea removed and placed in carbonated Krebs-Ringer-Bicarbonate solution (Krebs). Blood is carefully massaged from the chambers of the heart (see L. H. Tung, G. P. Jackman, B. Campbell, S. Louis, D. Iakovidis & W J Louis, J. Cardiovasc. Pharmacol, 21, (2), 484–488, 1993).
All extraneous tissue is dissected away and five rings 1–2 mm in width are cut from the trachea and mounted in sequence on loose loops. The rings are suspended from an isometric transducer set at a resting force of 1.0 g. The rings are then incubated in an organ bath at 37° C. in oxygenated (5% Carbogen) Krebs with 3 changes of Krebs every 10 min for 50 min. Carbachol 10^−6 M is then added to the bath to induce a contraction. Once the contractile force is stable, relaxation is induced by addition of increasing doses of isoprenaline (10^−8 to 10^−5 M) to produce the control dose-response curve. The tissue is then washed in three changes of Krebs every 10 min for 50 min before addition of the drug. After 10 minutes incubation carbachol is added once more and a fresh dose-response to isoprenaline measured. After a further wash of 50 min the control curve is repeated.
(§6) The data is used to calculate the pA2 values against atria and trachea (see Mackay, J. Pharm. Pharmacol., 30, 312–313, 1978). […] The ratio of the values indicates the selectivity of each compound.

[3] = molecular target: T2, β1 adrenoreceptor (guinea-pig atria) (Cavia porcellus, UniProt H0W3H1); test: Isoprenaline dose-response in isolated guinea-pig atria (pA2); conditions: isolated guinea-pig atria, antagonism of isoprenaline, 37° C.; for Kb: read-out: Guinea Pig, pA2 Atria, B1 (converted)
T2 construct: the atria is dissected from the ventricles; from tissue; host or cells: isolated guinea-pig atria (organ bath)
T2 sequence (H0W3H1 1-470): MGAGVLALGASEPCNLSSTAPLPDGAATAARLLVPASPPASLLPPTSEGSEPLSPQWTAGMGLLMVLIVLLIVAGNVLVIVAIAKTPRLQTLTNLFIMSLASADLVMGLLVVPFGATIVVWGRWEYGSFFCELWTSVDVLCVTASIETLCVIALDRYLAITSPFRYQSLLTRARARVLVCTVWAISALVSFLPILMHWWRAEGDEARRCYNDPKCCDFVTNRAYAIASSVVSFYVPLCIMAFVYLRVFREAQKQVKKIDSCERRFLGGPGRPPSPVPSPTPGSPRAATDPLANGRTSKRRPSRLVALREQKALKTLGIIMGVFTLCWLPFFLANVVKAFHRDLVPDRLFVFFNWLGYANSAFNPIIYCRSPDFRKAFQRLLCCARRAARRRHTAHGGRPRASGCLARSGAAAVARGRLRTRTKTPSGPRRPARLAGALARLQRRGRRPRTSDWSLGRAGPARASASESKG
From the text: as §5
(§7) All extraneous tissue is carefully dissected from the heart, and the atria is dissected from the ventricles. A suture with a loop is tied to each atrium and used to suspend the tissue from an organ bath rod. The other loop is attached to a force transducer loaded with 1 g force. The atria are then maintained in the bath with oxygenated (5% Carbogen) Krebs at 37° C. with changes of Krebs at 10 minute intervals for 50 min. Isoprenaline dose response curves are then measured by addition of isoprenaline in increasing doses from 10^−11 M until a plateau in the response is observed (ca 10^−5.5 M). Doses are increased at two minute intervals and maximum force of contraction and heart rate are recorded. At the end of the dose response curve, the organ bath is flushed with fresh Krebs and washed three times every 10 minutes for 50 minutes. The dose of test drug is then added to the organ bath and allowed to equilibrate for 10 minutes. The isoprenaline does-response curve is then repeated. After washing the atria with Krebs for a further 50 minutes as before, the control does-response curve is repeated in the absence of drug.
as §6

[4] = system: β1 adrenoreceptor (guinea-pig atria); test: as above; conditions: β1 (atria) versus β2 (trachea), from the pA2 values
From the text: as §5, §7, §6

[5] = system: heart rate response to isoprenaline; test: Duration of beta blockade after intravenous infusion in conscious rats (heart rate response to isoprenaline); assay type: in vivo, Sprague-Dawley rats; conditions: conscious male rats, after stopping i.v. infusion; time for inhibition of isoprenaline heart rate response to fall by 50%
Description: as §1, §2, §3, §4

Compound | Kb [2] | melting point | Kb [3] | half-life [1] | Selectivity [4] | Estimated Plasma Half Life [5] | Guinea Pig, pA2 Trachea, B2 [2] | Guinea Pig, pA2 Atria, B1 [3]
COc1ccc(OCCNCC(O)COc2ccc(OCCOCC(C)C)cc2C#N)cc1 (racemic) [Example 2, 1-(2-cyano-4-(2-(2-methylpropoxy)ethoxy)phenoxy)-2-hydroxy-3-(2-(4-methoxyphenoxy)ethylamino)propane] | 39.8 µM | 69 to 71 °C | 0.0398 µM | ~17 min | 1000 | – | – | –
CCOCCOc1ccc(OC[C@@H](O)CNCCc2ccc(OC)c(OC)c2)cc1 [Example 1, S(−)-1-(4-(2-ethoxyethoxy)phenoxy)-2-hydroxy-3-(2-(3,4-dimethoxyphenyl)ethylamino)propane] | – | – | – | – | 2512 | 10 to 20 min | 4.3 | 7.7

Further lines, with some results ahead:

Kb [2] | melting point | Kb [3] | Compound | half-life [1] | Selectivity [4] | Estimated Plasma Half Life [5] | Guinea Pig, pA2 Trachea, B2 [2] | Guinea Pig, pA2 Atria, B1 [3]
39.8 µM | 84 to 86 °C | 0.0501 µM | COc1ccc(CCNCC(O)COc2ccc(OCCOCC3CC3)cc2C#N)cc1OC (racemic) [Example 4, 1-(2-cyano-4-(2-cyclopropylmethoxyethoxy)phenoxy)-2-hydroxy-3-(2-(3,4-dimethoxyphenyl)ethylamino)propane] | ~15 min | 794 | – | – | –
> 31.6 µM | 140 to 143 °C | 0.0631 µM | CCOCCOc1ccc(OCC(O)CNCCc2ccc(OC)c(OC)c2)cc1 (racemic) [Example 7, 1-(4-(2-ethoxyethoxy)phenoxy)-2-hydroxy-3-(2-(3,4-dimethoxyphenyl)ethylamino)propane] | ~10 min | >501 | – | – | –
50.1 µM | 113 to 115 °C | 0.1 µM | COCCOc1ccc(OCC(O)CNCCOc2ccc(OC)cc2)cc1 (racemic) [Example 5, 1-(4-(2-methoxyethoxy)phenoxy)-2-hydroxy-3-(2-(4-methoxyphenoxy)ethylamino)propane] | 10 to 20 min | 501 | – | – | –
